Experimental data published in ChEMBL document CHEMBL1949531, “Synthesis and antiviral activities of novel gossypol derivatives” (Bioorg Med Chem Lett, 2012).
Active and inactive are the calls of the source. No cut-off for these calls is given here.

What was measured:
[1] = test system: Human immunodeficiency virus 1; assay: Antiviral activity against HIV1 3B infected human TZM-bl cells assessed as inhibition of viral replication by luciferase reporter assay; format: functional, organism-based
[2] = Cytotoxicity in human TZM-bl cells by MTT assay; format: cell-based
[3] = Selectivity index, ratio of CC50 for human TZM-bl cells to IC50 for HIV1 3B; format: functional
Albumin = Albumin (Homo sapiens, UniProt P02768); assay: Binding affinity to human serum albumin by fluorescence quenching assay; format: ADME; settings: isolated protein
Chain of Albumin (P02768 whole entry): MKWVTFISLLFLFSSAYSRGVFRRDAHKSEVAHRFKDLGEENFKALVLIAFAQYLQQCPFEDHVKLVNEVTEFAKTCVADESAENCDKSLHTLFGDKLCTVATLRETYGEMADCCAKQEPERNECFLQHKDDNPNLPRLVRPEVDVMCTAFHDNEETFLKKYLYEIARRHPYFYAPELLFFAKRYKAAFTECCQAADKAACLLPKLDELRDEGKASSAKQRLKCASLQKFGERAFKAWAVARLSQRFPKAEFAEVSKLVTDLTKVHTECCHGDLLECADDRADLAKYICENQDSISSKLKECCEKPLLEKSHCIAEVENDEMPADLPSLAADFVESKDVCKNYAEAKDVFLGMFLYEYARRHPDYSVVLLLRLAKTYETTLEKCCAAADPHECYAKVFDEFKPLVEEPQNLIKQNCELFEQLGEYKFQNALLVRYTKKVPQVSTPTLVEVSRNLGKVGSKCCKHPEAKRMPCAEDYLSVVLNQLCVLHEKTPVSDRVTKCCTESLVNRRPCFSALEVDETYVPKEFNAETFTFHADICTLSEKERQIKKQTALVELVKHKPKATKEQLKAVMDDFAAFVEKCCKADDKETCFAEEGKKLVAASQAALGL

Influenza A virus = assay: Antiviral activity against Influenza A virus (A/Vietnam/1194/2004(H5N1)) infected in MDCK cells assessed as inhibition of viral replication by plaque reduction assay; format: functional, organism-based
[4] = Cytotoxicity against MDCK cells by MTT assay; format: cell-based, Canis lupus familiaris; settings: dog
[5] = Selectivity index, ratio of CC50 for MDCK cells to IC50 for Influenza A virus (A/Vietnam/1194/2004(H5N1)); format: functional
[6] = test system: Human immunodeficiency virus 1; assay: Antiviral activity against HIV1 3B infected human TZM-bl cells assessed as inhibition of viral replication at 10 uM treated immediately after infection by luciferase reporter assay; format: functional, organism-based
[7] = test system: Human immunodeficiency virus 1; assay: Antiviral activity against HIV1 3B infected human TZM-bl cells assessed as inhibition of viral replication at 10 uM treated 2 hrs after viral infection by luciferase reporter assay; format: functional, organism-based
[8] = Human immunodeficiency virus 1, 3B, TZM-bl, read-out: IC50

Compound	IC50 [1, 8]	CC50 [2]	Ratio CC50/IC50 [3]	Ka (Albumin)	IC50 (Influenza A virus)	CC50 [4]	Ratio CC50/IC50 [5]	IC50 ([1]; tzm-bl)	inhibition [6]	inhibition [7]
Cc1cc2c(c(O)c1-c1c(C)cc3c(c1O)/C(=C/N[C@@H](CS)C(=O)[O-])C(=O)C(O)=C3C(C)C)/C(=C/N[C@@H](CS)C(=O)[O-])C(=O)C(O)=C2C(C)C.[Na+].[Na+]	3.73 µM	16.5 µM	4.42	8.2016 ×10³ L/mol	43.4 µM	> 43.4 µM	>1			
NC12CC3CC(CC(C3)C1)C2 [AMANTADINE]					2.38 µM	> 220 µM	>92.59			
Cc1cc2c(c(O)c1-c1c(C)cc3c(c1O)/C(=C/NCCCCC(=O)[O-])C(=O)C(O)=C3C(C)C)/C(=C/NCCCCC(=O)[O-])C(=O)C(O)=C2C(C)C.[Na+].[Na+]	1.71 µM	32.9 µM	19.25	2.4288 ×10⁴ L/mol	19.5 µM	> 43.8 µM	>2.25			
CC(=O)N[C@H]1[C@H]([C@H](O)[C@H](O)CO)OC(C(=O)O)=C[C@@H]1NC(=N)N [ZANAMIVIR]					0.12 µM	> 100 µM	>836			
Cc1cc2c(c(O)c1-c1c(C)cc3c(c1O)/C(=C/NCCS(=O)(=O)[O-])C(=O)C(O)=C3C(C)C)/C(=C/NCCS(=O)(=O)[O-])C(=O)C(O)=C2C(C)C.[Na+].[Na+] [MEGOSIN]	1.24 µM	53.4 µM	43.03	1.7559 ×10⁴ L/mol	8.59 µM	> 43 µM	>5			
Cc1cc2c(c(O)c1-c1c(C)cc3c(c1O)/C(=C/NCC(=O)[O-])C(=O)C(O)=C3C(C)C)/C(=C/NCC(=O)[O-])C(=O)C(O)=C2C(C)C.[Na+].[Na+]				1.2462 ×10⁴ L/mol	9.87 µM	> 49.3 µM	>5			
CCOC(=O)CN/C=C1\C(=O)C(O)=C(C(C)C)c2cc(C)c(-c3c(C)cc4c(c3O)/C(=C/NCC(=O)OCC)C(=O)C(O)=C4C(C)C)c(O)c21		25.7 µM		1.9028 ×10² L/mol	9.69 µM	> 48.5 µM	>5	Not Active		
COC(=O)[C@H](Cc1c[nH]c2ccccc12)N/C=C1\C(=O)C(O)=C(C(C)C)c2cc(C)c(-c3c(C)cc4c(c3O)/C(=C/N[C@@H](Cc3c[nH]c5ccccc35)C(=O)OC)C(=O)C(O)=C4C(C)C)c(O)c21		22 µM		2.262 ×10³ L/mol	7.26 µM	> 36.3 µM	>5	Not Active		
Cc1cc2c(c(O)c1-c1c(C)cc3c(c1O)/C(=C/N[C@@H](CO)C(=O)[O-])C(=O)C(O)=C3C(C)C)/C(=C/N[C@@H](CO)C(=O)[O-])C(=O)C(O)=C2C(C)C.[Na+].[Na+]	2.88 µM	68.3 µM	23.72	5.7756 ×10⁴ L/mol	45.3 µM	> 45.3 µM	>1			
Cc1cc2c(c(O)c1-c1c(C)cc3c(c1O)/C(=C/N[C@H](C(=O)[O-])c1ccccc1)C(=O)C(O)=C3C(C)C)/C(=C/N[C@H](C(=O)[O-])c1ccccc1)C(=O)C(O)=C2C(C)C.[Na+].[Na+]	1.45 µM	29.9 µM	20.64	1.4015 ×10⁴ L/mol	8.06 µM	> 40.3 µM	>5			
Cc1cc2c(c(O)c1-c1c(C)cc3c(c1O)/C(=C/NC(C(=O)[O-])c1ccc(Cl)cc1)C(=O)C(O)=C3C(C)C)/C(=C/NC(C(=O)[O-])c1ccc(Cl)cc1)C(=O)C(O)=C2C(C)C.[Na+].[Na+] (stereo unspecified)	1.28 µM	21.9 µM	17.12	1.2868 ×10⁴ L/mol	21.5 µM	> 37.2 µM	>1.73			
Cc1cc2c(C(C)C)c(O)c(O)c(/C=N/[C@@H](Cc3ccccc3)C(=O)[O-])c2c(O)c1-c1c(C)cc2c(C(C)C)c(O)c(O)c(/C=N/[C@@H](Cc3ccccc3)C(=O)[O-])c2c1O.[Na+].[Na+]	1.77 µM	57.1 µM	32.27	1.2835 ×10⁵ L/mol	7.79 µM	> 38.9 µM	>5			
Cc1cc2c(c(O)c1-c1c(C)cc3c(c1O)/C(=C/NCCCCCCCC(=O)[O-])C(=O)C(O)=C3C(C)C)/C(=C/NCCCCCCCC(=O)[O-])C(=O)C(O)=C2C(C)C.[Na+].[Na+]	2.84 µM	29.6 µM	10.44	2.8629 ×10⁴ L/mol	39.5 µM	> 39.5 µM	>1			
Cc1cc2c(c(O)c1-c1c(C)cc3c(c1O)/C(=C/N[C@H](C(=O)[O-])C(C)C)C(=O)C(O)=C3C(C)C)/C(=C/N[C@H](C(=O)[O-])C(C)C)C(=O)C(O)=C2C(C)C.[Na+].[Na+]	1.14 µM	70.3 µM	61.68	2.114 ×10⁵ L/mol	1.78 µM	> 43.9 µM	>24.64		Active	inactive
Cc1cc2c(c(O)c1-c1c(C)cc3c(c1O)/C(=C/NCCCCCC(=O)[O-])C(=O)C(O)=C3C(C)C)/C(=C/NCCCCCC(=O)[O-])C(=O)C(O)=C2C(C)C.[Na+].[Na+]	2.09 µM	31.8 µM	15.19	3.2203 ×10⁴ L/mol	42.3 µM	> 42.3 µM	>1			
enfuvirtide	0.0988 µM								Active	inactive
Cc1cc2c(c(O)c1-c1c(C)cc3c(c1O)/C(=C/N[C@@H](C)C(=O)[O-])C(=O)C(O)=C3C(C)C)/C(=C/N[C@@H](C)C(=O)[O-])C(=O)C(O)=C2C(C)C.[Na+].[Na+]	1.22 µM	56.2 µM	46.09	1.0392 ×10⁵ L/mol	0.87 µM	> 47.3 µM	>54.41		Active	inactive
Cc1cc2c(c(O)c1-c1c(C)cc3c(c1O)/C(=C/NC(C)(C)C(=O)[O-])C(=O)C(O)=C3C(C)C)/C(=C/NC(C)(C)C(=O)[O-])C(=O)C(O)=C2C(C)C.[Na+].[Na+]	1.39 µM	99 µM	71.19	1.9125 ×10⁵ L/mol	1.05 µM	> 45.5 µM	>43.37		Active	inactive
Cc1cc2c(c(O)c1-c1c(C)cc3c(c1O)/C(=C/N[C@@H](Cc1ccc(O)cc1)C(=O)[O-])C(=O)C(O)=C3C(C)C)/C(=C/N[C@@H](Cc1ccc(O)cc1)C(=O)[O-])C(=O)C(O)=C2C(C)C.[Na+].[Na+]	1.62 µM	54.8 µM	33.81	7.5353 ×10⁴ L/mol	37.5 µM	> 37.5 µM	>1			
COC(=O)[C@H](C)N/C=C1\C(=O)C(O)=C(C(C)C)c2cc(C)c(-c3c(C)cc4c(c3O)/C(=C/N[C@@H](C)C(=O)OC)C(=O)C(O)=C4C(C)C)c(O)c21		25.6 µM		1.0413 ×10⁴ L/mol	1.16 µM	> 48.5 µM	>41.77	Not Active		
Cc1cc2c(c(O)c1-c1c(C)cc3c(c1O)/C(=C/N[C@@H](Cc1c[nH]cn1)C(=O)[O-])C(=O)C(O)=C3C(C)C)/C(=C/N[C@@H](Cc1c[nH]cn1)C(=O)[O-])C(=O)C(O)=C2C(C)C.[Na+].[Na+]	1.58 µM	51.2 µM	32.38	6.7205 ×10⁴ L/mol	41.2 µM	> 41.2 µM	>1			
Cc1cc2c(c(O)c1-c1c(C)cc3c(c1O)/C(=C/NC(C(=O)[O-])c1ccc(O)cc1)C(=O)C(O)=C3C(C)C)/C(=C/NC(C(=O)[O-])c1ccc(O)cc1)C(=O)C(O)=C2C(C)C.[Na+].[Na+] (stereo unspecified)	1.34 µM	22.2 µM	16.54	2.1607 ×10⁴ L/mol	7.76 µM	> 38.8 µM	>5			
Cc1cc2c(c(O)c1-c1c(C)cc3c(c1O)/C(=C/N[C@@H](CC(C)C)C(=O)[O-])C(=O)C(O)=C3C(C)C)/C(=C/N[C@@H](CC(C)C)C(=O)[O-])C(=O)C(O)=C2C(C)C.[Na+].[Na+]	1.37 µM	42.8 µM	31.26	1.3483 ×10⁴ L/mol	8.46 µM	> 47.4 µM	>5.6			
COC(=O)[C@H](CC(C)C)N/C=C1\C(=O)C(O)=C(C(C)C)c2cc(C)c(-c3c(C)cc4c(c3O)/C(=C/N[C@@H](CC(C)C)C(=O)OC)C(=O)C(O)=C4C(C)C)c(O)c21		33.6 µM		7.1236 ×10³ L/mol	8.63 µM	> 42.8 µM	>5	Not Active		
COC(=O)C(N/C=C1\C(=O)C(O)=C(C(C)C)c2cc(C)c(-c3c(C)cc4c(c3O)/C(=C/NC(C(=O)OC)c3ccccc3)C(=O)C(O)=C4C(C)C)c(O)c21)c1ccccc1 (stereo unspecified)		31.5 µM		4.2658 ×10⁴ L/mol	8.21 µM	> 41.1 µM	>5	Not Active		
